The supplement of paper PMC10307832

How the values were obtained:
Test in all cases: relative viability (nuclei count vs DMSO), 5 days (fraction); higher = more cells survive
Ispinesib + Alpelisib = compound: Cc1ccc(C(=O)N(CCCN)[C@@H](c2nc3cc(Cl)ccc3c(=O)n2Cc2ccccc2)C(C)C)cc1 [Ispinesib] + Cc1nc(NC(=O)N2CCC[C@H]2C(N)=O)sc1-c1ccnc(C(C)(C)C(F)(F)F)c1 [Alpelisib] (partner 2 µM)
Method in brief: (§1)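 Values are medians from duplicate plates. Each reflects relative viability, defined as the nuclei count of treated wells over that of vehicle wells. Lung cancer cell lines in 1536-well plates were pin-tool dosed one day after seeding with one drug alone or with a fixed anchor-drug dose plus five library-drug doses (not always all listed) in √10 steps, then fixed, stained and imaged at 4× after 5 days.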

Linsitinib + Bortezomib = compound: C[C@]1(O)C[C@@H](c2nc(-c3ccc4ccc(-c5ccccc5)nc4c3)c3c(N)nccn32)C1 [Linsitinib] + CC(C)C[C@H](NC(=O)[C@H](Cc1ccccc1)NC(=O)c1cnccn1)B(O)O [Bortezomib] (partner 0.002 µM)
Method in brief: as §1

Ispinesib + Tozasertib = compound: Cc1ccc(C(=O)N(CCCN)[C@@H](c2nc3cc(Cl)ccc3c(=O)n2Cc2ccccc2)C(C)C)cc1 [Ispinesib] + Cc1cc(Nc2cc(N3CCN(C)CC3)nc(Sc3ccc(NC(=O)C4CC4)cc3)n2)n[nH]1 [Tozasertib] (partner 0.1 µM)
Method in brief: as §1

Linsitinib + Luminespib = compound: C[C@]1(O)C[C@@H](c2nc(-c3ccc4ccc(-c5ccccc5)nc4c3)c3c(N)nccn32)C1 [Linsitinib] + CCNC(=O)c1noc(-c2cc(C(C)C)c(O)cc2O)c1-c1ccc(CN2CCOCC2)cc1 [Luminespib] (partner 0.01 µM)
Method in brief: as §1

Row | Cell Line | relative viability (Ispinesib + Alpelisib; first compound 0.001 µM) | relative viability (Ispinesib + Alpelisib; first compound 0.003162 µM) | relative viability (Ispinesib + Alpelisib; first compound 0.01 µM) | relative viability (Ispinesib + Alpelisib; first compound 0.03162 µM) | relative viability (Ispinesib + Alpelisib; first compound 0.1 µM) | relative viability (Linsitinib + Bortezomib; first compound 0.01 µM) | relative viability (Linsitinib + Bortezomib; first compound 0.03162 µM) | relative viability (Linsitinib + Bortezomib; first compound 0.1 µM) | relative viability (Linsitinib + Bortezomib; first compound 0.3162 µM) | relative viability (Linsitinib + Bortezomib; first compound 1 µM) | relative viability (Ispinesib + Tozasertib; first compound 0.001 µM) | relative viability (Ispinesib + Tozasertib; first compound 0.003162 µM) | relative viability (Ispinesib + Tozasertib; first compound 0.01 µM) | relative viability (Ispinesib + Tozasertib; first compound 0.03162 µM) | relative viability (Ispinesib + Tozasertib; first compound 0.1 µM) | relative viability (Linsitinib + Luminespib; first compound 0.01 µM) | relative viability (Linsitinib + Luminespib; first compound 0.03162 µM) | relative viability (Linsitinib + Luminespib; first compound 0.1 µM) | relative viability (Linsitinib + Luminespib; first compound 0.3162 µM) | relative viability (Linsitinib + Luminespib; first compound 1 µM)
1 | IA-LM | 0.742 | 0.904 | 1.09 | 0.11 | 0.158 | 0.748 | 0.824 | 0.789 | 0.648 | 0.678 | – | – | – | – | – | – | – | – | – | –
2 | NCI-H1793 | 0.677 | 0.713 | 1.17 | 0.783 | 0.328 | – | – | – | – | – | 0.322 | 0.345 | 0.724 | 0.288 | 0.368 | 0.166 | 0.205 | 0.164 | 0.149 | 0.178
3 | HCC-78 | 0.358 | 0.393 | 0.38 | – | 0.268 | 0.511 | 0.645 | 0.507 | 0.525 | 0.395 | 0.444 | 0.426 | 0.521 | 0.449 | 0.407 | – | – | – | – | –
4 | NCI-H1792 | 0.838 | 0.68 | 0.692 | 0.393 | 0.44 | 0.971 | 0.953 | 0.928 | 0.775 | 0.704 | – | – | – | – | – | 0.427 | 0.52 | 0.371 | 0.297 | 0.328
5 | ChaGo-K-1 | – | – | – | – | – | 1.05 | 0.98 | 0.922 | 0.443 | 1 | 0.22 | 0.225 | 0.234 | 0.248 | 0.222 | 0.644 | 0.535 | 0.544 | 0.699 | 0.728
6 | NCI-H1944 | 0.861 | 0.803 | 0.851 | 0.508 | 0.634 | – | – | – | – | – | 0.263 | 0.249 | 0.275 | 0.225 | 0.234 | 0.755 | 0.793 | 0.727 | 0.637 | 0.532
7 | NCI-H522 | – | – | – | – | – | – | – | – | – | – | 0.562 | 0.508 | 0.542 | 0.557 | 0.702 | 1.55 | 1.18 | 1.18 | 0.961 | 1.2
8 | NCI-H1623 | – | – | – | – | – | – | – | – | – | – | 0.404 | 0.719 | 0.473 | 0.394 | 0.324 | 0.43 | 0.483 | 0.5 | – | 0.307
9 | HCC-366 | 0.733 | 0.393 | 0.535 | 0.47 | 0.135 | 1.06 | 1.02 | 1.1 | 0.959 | 0.906 | 0.172 | 0.13 | 0.663 | 0.0791 | 0.0441 | – | – | – | – | –
10 | SK-MES-1 | 0.905 | 1.42 | 1.07 | 0.681 | 0.286 | – | – | – | – | – | 0.983 | 1.03 | 0.949 | 0.217 | 0.215 | 0.845 | 0.854 | 0.953 | 0.652 | 0.762
